Results published in ChEMBL document CHEMBL4420075, “Seriniquinones, melanoma-specific anticancer agents” (2016).

What was measured:
HCT-116 [1] = assay: Cytotoxicity in human HCT116 cells by MTT assay; type: functional, cell-based
NCI-H460 = assay: Growth inhibition of human NCI-H460 cells assessed as cell growth incubated for 48 hrs by sulforhodamine B assay; type: functional; parameters: concentration or dose not given beside the values
A498 = assay: Growth inhibition of human A498 cells assessed as cell growth incubated for 48 hrs by sulforhodamine B assay; type: functional; parameters: concentration or dose not given beside the values
HOP-92 = assay: Growth inhibition of human HOP92 cells assessed as cell growth incubated for 48 hrs by sulforhodamine B assay; type: functional; parameters: concentration or dose not given beside the values
CAKI-1 = assay: Growth inhibition of human Caki1 cells assessed as cell growth incubated for 48 hrs by sulforhodamine B assay; type: functional; parameters: concentration or dose not given beside the values
MCF7 = assay: Growth inhibition of human MCF7 cells assessed as cell growth incubated for 48 hrs by sulforhodamine B assay; type: functional; parameters: concentration or dose not given beside the values
HCC 2998 = assay: Growth inhibition of human HCC2998 cells assessed as cell growth incubated for 48 hrs by sulforhodamine B assay; type: functional; parameters: concentration or dose not given beside the values
SW-620 = assay: Growth inhibition of human SW620 cells assessed as cell growth incubated for 48 hrs by sulforhodamine B assay; type: functional; parameters: concentration or dose not given beside the values
LOX IMVI = assay: Growth inhibition of human LOXIMVI cells assessed as cell growth incubated for 48 hrs by sulforhodamine B assay; type: functional; parameters: concentration or dose not given beside the values
DU-145 = assay: Growth inhibition of human DU145 cells assessed as cell growth incubated for 48 hrs by sulforhodamine B assay; type: functional; parameters: concentration or dose not given beside the values
SK-OV-3 = assay: Growth inhibition of human SKOV3 cells assessed as cell growth incubated for 48 hrs by sulforhodamine B assay; type: functional; parameters: concentration or dose not given beside the values
SK-MEL-28 = assay: Growth inhibition of human SK-MEL-28 cells assessed as cell growth incubated for 48 hrs by sulforhodamine B assay; type: functional; parameters: concentration or dose not given beside the values
BT-549 = assay: Growth inhibition of human BT549 cells assessed as cell growth incubated for 48 hrs by sulforhodamine B assay; type: functional; parameters: concentration or dose not given beside the values
OVCAR-3 = assay: Growth inhibition of human OVCAR3 cells assessed as cell growth incubated for 48 hrs by sulforhodamine B assay; type: functional; parameters: concentration or dose not given beside the values
HT-29 = assay: Growth inhibition of human HT-29 cells assessed as cell growth incubated for 48 hrs by sulforhodamine B assay; type: functional; parameters: concentration or dose not given beside the values
MOLT-4 = assay: Growth inhibition of human MOLT4 cells assessed as cell growth incubated for 48 hrs by sulforhodamine B assay; type: functional; parameters: concentration or dose not given beside the values
OVCAR-4 = assay: Growth inhibition of human OVCAR4 cells assessed as cell growth incubated for 48 hrs by sulforhodamine B assay; type: functional; parameters: concentration or dose not given beside the values
786-0 = assay: Growth inhibition of human 786-0 cells assessed as cell growth incubated for 48 hrs by sulforhodamine B assay; type: functional; parameters: concentration or dose not given beside the values
RXF 393 = assay: Growth inhibition of human RXF393 cells assessed as cell growth incubated for 48 hrs by sulforhodamine B assay; type: functional; parameters: concentration or dose not given beside the values
CCRF-CEM = assay: Growth inhibition of human CCRF-CEM cells assessed as cell growth incubated for 48 hrs by sulforhodamine B assay; type: functional; parameters: concentration or dose not given beside the values
U-251 = assay: Growth inhibition of human U251 cells assessed as cell growth incubated for 48 hrs by sulforhodamine B assay; type: functional; parameters: concentration or dose not given beside the values
HOP-62 = assay: Growth inhibition of human HOP62 cells assessed as cell growth incubated for 48 hrs by sulforhodamine B assay; type: functional; parameters: concentration or dose not given beside the values
HCT-15 = assay: Growth inhibition of human HCT15 cells assessed as cell growth incubated for 48 hrs by sulforhodamine B assay; type: functional; parameters: scale not given: the % may be the effect or the level left
MDA-MB-468 = assay: Growth inhibition of human MDA-MB-468 cells assessed as cell growth incubated for 48 hrs by sulforhodamine B assay; type: functional; parameters: concentration or dose not given beside the values
NCI-H23 = assay: Growth inhibition of human NCI-H23 cells assessed as cell growth incubated for 48 hrs by sulforhodamine B assay; type: functional; parameters: concentration or dose not given beside the values
SR = assay: Growth inhibition of human SR cells assessed as cell growth incubated for 48 hrs by sulforhodamine B assay; type: functional; parameters: concentration or dose not given beside the values
SNB-19 = assay: Growth inhibition of human SNB19 cells assessed as cell growth incubated for 48 hrs by sulforhodamine B assay; type: functional; parameters: concentration or dose not given beside the values
SK-MEL-5 = assay: Growth inhibition of human SK-MEL-5 cells assessed as cell growth incubated for 48 hrs by sulforhodamine B assay; type: functional; parameters: concentration or dose not given beside the values
KM12 = assay: Growth inhibition of human KM12 cells assessed as cell growth incubated for 48 hrs by sulforhodamine B assay; type: functional; parameters: concentration or dose not given beside the values
M14 = assay: Growth inhibition of human M14 cells assessed as cell growth incubated for 48 hrs by sulforhodamine B assay; type: functional; parameters: concentration or dose not given beside the values
RPMI-8226 = assay: Growth inhibition of human RPMI8226 cells assessed as cell growth incubated for 48 hrs by sulforhodamine B assay; type: functional; parameters: concentration or dose not given beside the values
SF-539 = assay: Growth inhibition of human SF539 cells assessed as cell growth incubated for 48 hrs by sulforhodamine B assay; type: functional; parameters: scale not given: the % may be the effect or the level left
UACC-62 = assay: Growth inhibition of human UACC62 cells assessed as cell growth incubated for 48 hrs by sulforhodamine B assay; type: functional; parameters: concentration or dose not given beside the values
NCI-H322M = assay: Growth inhibition of human NCI-H322M cells assessed as cell growth incubated for 48 hrs by sulforhodamine B assay; type: functional; parameters: scale not given: the % may be the effect or the level left
SF-268 = assay: Growth inhibition of human SF268 cells assessed as cell growth incubated for 48 hrs by sulforhodamine B assay; type: functional; parameters: concentration or dose not given beside the values
NCI-H226 = assay: Growth inhibition of human NCI-H226 cells assessed as cell growth incubated for 48 hrs by sulforhodamine B assay; type: functional; parameters: concentration or dose not given beside the values
PC-3 = assay: Growth inhibition of human PC3 cells assessed as cell growth incubated for 48 hrs by sulforhodamine B assay; type: functional; parameters: concentration or dose not given beside the values
OVCAR-8 = assay: Growth inhibition of human OVCAR8 cells assessed as cell growth incubated for 48 hrs by sulforhodamine B assay; type: functional; parameters: concentration or dose not given beside the values
COLO 205 = assay: Growth inhibition of human COLO205 cells assessed as cell growth incubated for 48 hrs by sulforhodamine B assay; type: functional; parameters: concentration or dose not given beside the values
Hs-578T = assay: Growth inhibition of human Hs 578T cells assessed as cell growth incubated for 48 hrs by sulforhodamine B assay; type: functional; parameters: concentration or dose not given beside the values
TK-10 = assay: Growth inhibition of human TK10 cells assessed as cell growth incubated for 48 hrs by sulforhodamine B assay; type: functional; parameters: concentration or dose not given beside the values
MDA-MB-231 = assay: Growth inhibition of human MDA-MB-231 cells assessed as cell growth incubated for 48 hrs by sulforhodamine B assay; type: functional; parameters: concentration or dose not given beside the values
SNB-75 = assay: Growth inhibition of human SNB75 cells assessed as cell growth incubated for 48 hrs by sulforhodamine B assay; type: functional; parameters: concentration or dose not given beside the values
OVCAR-5 = assay: Growth inhibition of human OVCAR5 cells assessed as cell growth incubated for 48 hrs by sulforhodamine B assay; type: functional; parameters: scale not given: the % may be the effect or the level left
SK-MEL-2 = assay: Growth inhibition of human SK-MEL-2 cells assessed as cell growth incubated for 48 hrs by sulforhodamine B assay; type: functional; parameters: concentration or dose not given beside the values
K562 = assay: Growth inhibition of human K562 cells assessed as cell growth incubated for 48 hrs by sulforhodamine B assay; type: functional; parameters: concentration or dose not given beside the values
UO-31 = assay: Growth inhibition of human UO31 cells assessed as cell growth incubated for 48 hrs by sulforhodamine B assay; type: functional; parameters: concentration or dose not given beside the values
HCT-116 [2] = assay: Growth inhibition of human HCT116 cells assessed as cell growth incubated for 48 hrs by sulforhodamine B assay; type: functional; parameters: concentration or dose not given beside the values
ACHN = assay: Growth inhibition of human ACHN cells assessed as cell growth incubated for 48 hrs by sulforhodamine B assay; type: functional; parameters: scale not given: the % may be the effect or the level left
MDA-MB-435 = assay: Growth inhibition of human MDA-MB-435 cells assessed as cell growth incubated for 48 hrs by sulforhodamine B assay; type: functional; parameters: concentration or dose not given beside the values
NCI-H522 = assay: Growth inhibition of human NCI-H522 cells assessed as cell growth incubated for 48 hrs by sulforhodamine B assay; type: functional; parameters: concentration or dose not given beside the values
HL-60(TB) = assay: Growth inhibition of human HL-60(TB) cells assessed as cell growth incubated for 48 hrs by sulforhodamine B assay; type: functional; parameters: concentration or dose not given beside the values
SF-295 = assay: Growth inhibition of human SF295 cells assessed as cell growth incubated for 48 hrs by sulforhodamine B assay; type: functional; parameters: concentration or dose not given beside the values
A549 = assay: Growth inhibition of human A549/ATCC cells assessed as cell growth incubated for 48 hrs by sulforhodamine B assay; type: functional; parameters: concentration or dose not given beside the values
T47D = assay: Growth inhibition of human T47D cells assessed as cell growth incubated for 48 hrs by sulforhodamine B assay; type: functional; parameters: concentration or dose not given beside the values
NCI/ADR-RES = assay: Growth inhibition of human NCI/ADR-RES cells assessed as cell growth incubated for 48 hrs by sulforhodamine B assay; type: functional; parameters: concentration or dose not given beside the values
UACC-257 = assay: Growth inhibition of human UACC257 cells assessed as cell growth incubated for 48 hrs by sulforhodamine B assay; type: functional; parameters: concentration or dose not given beside the values
SN12C = assay: Growth inhibition of human SN12C cells assessed as cell growth incubated for 48 hrs by sulforhodamine B assay; type: functional; parameters: concentration or dose not given beside the values
Malme-3M = assay: Growth inhibition of human MALME-3M cells assessed as cell growth incubated for 48 hrs by sulforhodamine B assay; type: functional; parameters: scale not given: the % may be the effect or the level left

O=c1c2cc(O)ccc2c(=O)c2c1sc1c(=O)c3cc(O)ccc3c(=O)c12
IC50 (HCT-116 [1]): 4.4 µM

CC(=O)Oc1ccc2c(=O)c3sc4c(=O)c5cc(O)ccc5c(=O)c4c3c(=O)c2c1
IC50 (HCT-116 [1]): 3.5 µM

CC(=O)Oc1ccc2c(=O)c3c(sc4c(=O)c5ccc(O)cc5c(=O)c43)c(=O)c2c1
IC50 (HCT-116 [1]): 1.8 µM

NCC1CN(C(=O)CCc2ccc3c(=O)c4sc5c(=O)c6ccccc6c(=O)c5c4c(=O)c3c2)C1.O=C(O)C(F)(F)F
Activity (NCI-H460): -52.32% | Activity (A498): -87.3% | Activity (HOP-92): -32.93% | Activity (CAKI-1): -78.75% | Activity (MCF7): -58.78% | Activity (HCC 2998): -90.76% | Activity (SW-620): -60.32% | Activity (LOX IMVI): -82.6% | Activity (DU-145): -94.41% | Activity (SK-OV-3): -97.49% | Activity (SK-MEL-28): -96.8% | Activity (BT-549): -96.67% | Activity (OVCAR-3): -68.52% | Activity (HT-29): -46.19% | Activity (MOLT-4): -36.2% | Activity (OVCAR-4): -71.07% | Activity (786-0): -95.07% | Activity (RXF 393): -77.25% | Activity (CCRF-CEM): -29.57% | Activity (U-251): -92.83% | Activity (HOP-62): -90.94% | Activity (HCT-15): -61.54% | Activity (MDA-MB-468): -83.65% | Activity (NCI-H23): -50.82% | Activity (SR): -25% | Activity (SNB-19): -98.59% | Activity (SK-MEL-5): -98.07% | Activity (KM12): -76.76% | Activity (M14): -93.82% | Activity (RPMI-8226): -39.84% | Activity (SF-539): -99.46% | Activity (UACC-62): -88.01% | Activity (NCI-H322M): -97.48% | Activity (SF-268): -57.54% | Activity (NCI-H226): -49.62% | Activity (PC-3): -79.46% | Activity (OVCAR-8): -38.88% | Activity (COLO 205): -91.79% | Activity (Hs-578T): 1.09% | Activity (TK-10): -89.49% | Activity (MDA-MB-231): -15.99% | Activity (SNB-75): -95.74% | Activity (OVCAR-5): -85.63% | Activity (SK-MEL-2): -72.32% | Activity (K562): -59.88% | Activity (UO-31): -96.98% | Activity (HCT-116 [2]): -80.84% | Activity (ACHN): -96.22% | Activity (MDA-MB-435): -93.07% | Activity (NCI-H522): -72.26% | Activity (HL-60(TB)): -46.78% | Activity (SF-295): -92.59% | Activity (A549): -55.33% | Activity (T47D): -51.1% | Activity (NCI/ADR-RES): -15.35% | Activity (UACC-257): -92.08% | Activity (SN12C): -69% | Activity (Malme-3M): -93.22%
